# Test results as given in ChEMBL document CHEMBL2029263, “New myrsinol diterpenes from Euphorbia prolifera and their inhibitory activities on LPS-induced NO production” (Bioorg Med Chem Lett, 2012).
# Legend:
# BV-2 [1] = test: Inhibition of LPS-induced NO production in mouse BV2 cells after 20 hrs by Griess assay; assay type: functional, cell-based; conditions: BV-2, 20 h
# BV-2 [2] = test: Cytotoxicity against mouse BV2 cells at effective concentration after 20 hrs by MTT assay; assay type: cell-based; conditions: bv-2, 20 h
IC50 (BV-2 [1]) [µM],SMILES,Activity (BV-2 [2])
13.2,CSC(=N)N,–
80.2,C=C(C)[C@H]1C=C[C@@H](OC(=O)c2cccnc2)[C@@]23CO[C@@](C)([C@H](OC(=O)c4cccnc4)[C@@]4(OC(C)=O)C[C@H](C)[C@H](OC(=O)CC)[C@@H]4[C@H]2OC(C)=O)[C@H]13,Non-toxic
74.3,C=C(C)[C@H]1C=C[C@@H](OC(=O)c2ccccc2)[C@@]23CO[C@@](C)([C@H](OC(=O)c4cccnc4)[C@@]4(OC(C)=O)C[C@H](C)[C@H](OC(=O)CC)[C@@H]4[C@H]2OC(C)=O)[C@H]13,Non-toxic
19.4,CCC(=O)O[C@@H]1[C@@H]2[C@@H](OC(=O)c3ccccc3)[C@@]3(COC(=O)c4cccnc4)[C@@H]([C@@H]4[C@H](C[C@H]3OC(C)=O)C4(C)C)[C@](C)(O)C(=O)[C@@]2(O)C[C@@H]1C [EUPHORBIALOID A],Non-toxic
15.6,CC(=O)O[C@@H]1[C@@H]2[C@@H](OC(=O)c3ccccc3)[C@@]3(COC(=O)c4cccnc4)[C@@H]([C@@H]4[C@H](C[C@H]3OC(C)=O)C4(C)C)[C@](C)(O)C(=O)[C@@]2(O)C[C@@H]1C [EUPHORBIALOID B],Non-toxic
29.7,CCC(=O)O[C@@H]1[C@@H]2[C@@H](OC(=O)c3ccccc3)[C@@]3(COC(=O)c4cccnc4)[C@@H]([C@@H]4[C@H](C[C@H]3OC(C)=O)C4(C)C)[C@](C)(OC(C)=O)C(=O)[C@@]2(O)C[C@@H]1C [EUPHORBIALOID C],Non-toxic
35.2,CCCC(=O)O[C@@H]1[C@@H]2[C@@H](OC(=O)c3ccccc3)[C@@]3(COC(=O)c4cccnc4)[C@@H]([C@@H]4[C@H](C[C@H]3OC(C)=O)C4(C)C)[C@](C)(OC(C)=O)C(=O)[C@@]2(O)C[C@@H]1C [EUPHORBIALOID D],Non-toxic
33.7,CC(=O)O[C@@H]1[C@H]2[C@@H](OC(=O)c3cccnc3)[C@@H](C)C[C@]2(OC(C)=O)[C@@H](OC(C)=O)[C@]2(C)OC[C@]13C(=O)C=C[C@H](C(C)(C)OC(C)=O)[C@@H]23 [EUPHORBIALOID E],Non-toxic
36.5,CCC(=O)O[C@@H]1[C@@H]2[C@@H](OC(C)=O)[C@@]34CO[C@@](C)([C@H](OC(=O)c5cccnc5)[C@@]2(OC(C)=O)C[C@@H]1C)[C@@H]3[C@@H](C(C)(C)OC(C)=O)C=CC4=O [EUPHORBIALOID F],Non-toxic
48.7,CCC(=O)O[C@@H]1[C@@H]2[C@@H](OC(C)=O)[C@@]34CO[C@@](C)([C@H](OC(C)=O)[C@@]2(O)C[C@@H]1C)[C@@H]3[C@@H]1[C@@H](C[C@]1(C)OC(C)=O)[C@@H](OC(=O)c1cccnc1)C4=O [EUPHORBIALOID G],Non-toxic
64.3,CCC(=O)O[C@@H]1[C@@H]2[C@@H](OC(C)=O)[C@@]34CO[C@@](C)([C@H](OC(=O)c5cccnc5)[C@@]2(OC(C)=O)C[C@@H]1C)[C@@H]3[C@@H]1[C@@H](C[C@]1(C)OC(C)=O)[C@@H](OC(=O)c1ccccc1)C4=O [EUPHORBIALOID H],Non-toxic
41.3,CCC(=O)O[C@@H]1[C@@H]2[C@@H](OC(C)=O)[C@@]34CO[C@@](C)([C@@H](OC(=O)c5ccccc5)[C@@]2(OC(C)=O)C[C@@]1(C)OC(=O)c1cccnc1)[C@@H]3[C@@H](C(C)(C)OC(C)=O)C=C[C@H]4OC(C)=O [EUPHORBIALOID I],Non-toxic
43.8,CC(=O)O[C@@H]1[C@H]2[C@@H](OC(=O)c3cccnc3)[C@](C)(OC(=O)C(C)C)C[C@]2(OC(C)=O)[C@H](OC(=O)c2ccccc2)[C@]2(C)OC[C@]13[C@H](OC(C)=O)C=C[C@H](C(C)(C)OC(C)=O)[C@@H]23 [EUPHORBIALOID J],Non-toxic
